Reference: PubChem BioAssay (NCI)
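Test compounds were applied to cells in 96-well plates for 48 hours at 5 doses. GI50 is the concentration that inhibits growth by half. TGI: concentration producing complete growth inhibition.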

Legend:
Assay in all cases: inhibition of tumour cell growth, NCI panel, 48 h
[1] = system: M14 melanoma
[2] = system: SN12C renal
[3] = system: ACHN renal
[4] = system: PC-3 prostate
[5] = system: SK-MEL-5 melanoma
[6] = system: UO-31 renal
[7] = system: T-47D breast
[8] = system: SR leukemia
[9] = system: U251 CNS
[10] = system: A549 NSCLC
[11] = system: SNB-19 CNS
[12] = system: UACC-257 melanoma
[13] = system: KM12 colon
[14] = system: SF-268 CNS
[15] = system: SF-295 CNS
[16] = system: MOLT-4 leukemia
[17] = system: K-562 leukemia
[18] = system: HCC-2998 colon
[19] = system: OVCAR-5 ovarian
[20] = system: OVCAR-3 ovarian
[21] = system: CCRF-CEM leukemia
[22] = system: HL-60(TB) leukemia
[23] = system: OVCAR-8 ovarian
[24] = system: HCT-116 colon
[25] = system: SF-539 CNS
[26] = system: HOP-62 NSCLC
[27] = system: BT-549 breast
[28] = system: NCI-H522 lung
[29] = system: SNB-75 CNS
[30] = system: UACC-62 melanoma
[31] = system: CAKI-1 renal
[32] = system: MALME-3M melanoma
[33] = system: NCI-H460 lung
[34] = system: NCI/ADR-RES ovarian
[35] = system: HCT-15 colon
[36] = system: DU-145 prostate
[37] = system: LOX IMVI melanoma
[38] = system: COLO 205 colon
[39] = system: SW-620 colon
[40] = system: EKVX NSCLC
[41] = system: RXF 393 renal
[42] = system: MCF7 breast
[43] = system: MDA-MB-231 breast
[44] = system: MDA-MB-435
[45] = system: SK-OV-3 ovarian
[46] = system: A498 renal
[47] = system: NCI-H23 lung
[48] = system: IGROV1 ovarian
[49] = system: HT29 colon
[50] = system: HS 578T breast
[51] = system: 786-0 renal
[52] = system: SK-MEL-28 melanoma
[53] = system: RPMI-8226 leukemia
[54] = system: NCI-H226 lung
[55] = system: TK-10 renal
[56] = system: HOP-92 NSCLC
[57] = system: SK-MEL-2 melanoma

## CC(=O)Nc1nc(SCc2ccccc2)c2ncn(C(C)=O)c2n1
[1]
  GI50: 88.6 µM
  TGI: > 100 µM
[2]
  GI50: > 100 µM
  TGI: > 100 µM
[3]
  GI50: 61.6 µM
  TGI: > 100 µM
[4]
  GI50: 72.2 µM
  TGI: > 100 µM
[5]
  GI50: 45.3 µM
  TGI: > 100 µM
[6]
  GI50: 43.5 µM
  TGI: > 100 µM
[7]
  GI50: 50.7 µM
  TGI: > 100 µM
[8]
  GI50: > 100 µM
  TGI: > 100 µM
[9]
  GI50: 88.8 µM
  TGI: > 100 µM
[10]
  GI50: > 100 µM
  TGI: > 100 µM
[11]
  GI50: > 100 µM
  TGI: > 100 µM
[12]
  GI50: > 100 µM
  TGI: > 100 µM
[13]
  GI50: > 100 µM
  TGI: > 100 µM
[14]
  GI50: > 100 µM
  TGI: > 100 µM
[15]
  GI50: 66.1 µM
  TGI: > 100 µM
[16]
  GI50: > 100 µM
  TGI: > 100 µM
[17]
  GI50: > 100 µM
  TGI: > 100 µM
[18]
  GI50: > 100 µM
  TGI: > 100 µM
[19]
  GI50: > 100 µM
  TGI: > 100 µM
[20]
  GI50: 84.3 µM
  TGI: > 100 µM
[21]
  GI50: > 100 µM
  TGI: > 100 µM
[22]
  GI50: 63 µM
  TGI: > 100 µM
[23]
  GI50: 76.5 µM
  TGI: > 100 µM
[24]
  GI50: > 100 µM
  TGI: > 100 µM
[25]
  GI50: 97.7 µM
  TGI: > 100 µM
[26]
  GI50: 62.7 µM
  TGI: > 100 µM
[27]
  GI50: 85.3 µM
  TGI: > 100 µM
[28]
  GI50: 72.6 µM
  TGI: > 100 µM
[29]
  GI50: 44.7 µM
  TGI: > 100 µM
[30]
  GI50: 61.8 µM
  TGI: > 100 µM
[31]
  GI50: 28 µM
  TGI: > 100 µM
[32]
  GI50: > 100 µM
  TGI: > 100 µM
[33]
  GI50: > 100 µM
  TGI: > 100 µM
[34]
  GI50: 99.3 µM
  TGI: > 100 µM
[35]
  GI50: 93 µM
  TGI: > 100 µM
[36]
  GI50: > 100 µM
  TGI: > 100 µM
[37]
  GI50: 75.1 µM
  TGI: > 100 µM
[38]
  GI50: > 100 µM
  TGI: > 100 µM
[39]
  GI50: > 100 µM
  TGI: > 100 µM
[40]
  GI50: 71.6 µM
  TGI: > 100 µM
[41]
  GI50: 30.9 µM
  TGI: > 100 µM
[42]
  GI50: 91.8 µM
  TGI: > 100 µM
[43]
  GI50: 77.3 µM
  TGI: > 100 µM
[44]
  GI50: > 100 µM
  TGI: > 100 µM
[45]
  GI50: 55.9 µM
  TGI: > 100 µM
[46]
  GI50: 30.9 µM
  TGI: > 100 µM
[47]
  GI50: > 100 µM
  TGI: > 100 µM
[48]
  GI50: 79 µM
  TGI: > 100 µM
[49]
  GI50: 63.4 µM
  TGI: > 100 µM
[50]
  GI50: 47.3 µM
  TGI: > 100 µM
[51]
  GI50: 72.5 µM
  TGI: > 100 µM
[52]
  GI50: > 100 µM
  TGI: > 100 µM
[53]
  GI50: 55.6 µM
  TGI: > 100 µM
[54]
  GI50: 45.4 µM
  TGI: > 100 µM
[55]
  GI50: 23.4 µM
  TGI: 78.3 µM

## COc1ccc(/C=C2\CN(C(=O)C(Cl)Cl)C/C(=C\c3ccc(OC)c(OC)c3)C2=O)cc1OC
[1]
  GI50: 0.0926 µM
  TGI: 0.356 µM
[3]
  GI50: 0.165 µM
  TGI: 0.381 µM
[4]
  GI50: 0.301 µM
  TGI: 2.4 µM
[5]
  GI50: 0.199 µM
  TGI: 0.54 µM
[6]
  GI50: 0.184 µM
  TGI: 0.423 µM
[7]
  GI50: 0.361 µM
  TGI: > 100 µM
[8]
  GI50: 0.0352 µM
  TGI: > 100 µM
[9]
  GI50: 0.0405 µM
  TGI: 1.12 µM
[10]
  GI50: 1.28 µM
  TGI: > 100 µM
[13]
  GI50: 0.0987 µM
  TGI: 0.332 µM
[14]
  GI50: 2.42 µM
  TGI: > 100 µM
[15]
  GI50: 0.243 µM
  TGI: 0.803 µM
[16]
  GI50: 0.135 µM
  TGI: > 100 µM
[17]
  GI50: 0.0366 µM
  TGI: > 100 µM
[18]
  GI50: 0.39 µM
  TGI: 1.44 µM
[56]
  GI50: 0.532 µM
  TGI: 3.79 µM
[21]
  GI50: 0.0341 µM
  TGI: > 100 µM
[22]
  GI50: 0.221 µM
  TGI: 0.711 µM
[23]
  GI50: 0.0495 µM
  TGI: > 100 µM
[24]
  GI50: 0.0306 µM
  TGI: 0.103 µM
[26]
  GI50: 0.883 µM
[27]
  GI50: 0.535 µM
  TGI: 2.98 µM
[28]
  GI50: 0.231 µM
  TGI: 0.697 µM
[29]
  GI50: 0.651 µM
  TGI: > 100 µM
[30]
  GI50: 0.185 µM
  TGI: 0.549 µM
[31]
  GI50: 0.368 µM
  TGI: 1.98 µM
[33]
  GI50: 0.371 µM
  TGI: 1.72 µM
[57]
  GI50: 1.85 µM
  TGI: > 100 µM
[34]
  GI50: 0.0864 µM
  TGI: > 67.5 µM
[35]
  GI50: 0.069 µM
  TGI: 0.446 µM
[37]
  GI50: 0.0282 µM
  TGI: 0.0965 µM
[38]
  GI50: 0.307 µM
  TGI: 1.6 µM
[40]
  GI50: 0.366 µM
  TGI: 1.87 µM
[41]
  GI50: 0.209 µM
  TGI: 0.492 µM
[43]
  GI50: 0.344 µM
  TGI: 1.39 µM
[44]
  GI50: 0.0528 µM
  TGI: 0.265 µM
[45]
  GI50: 2.46 µM
  TGI: > 100 µM
[47]
  GI50: 0.41 µM
  TGI: 1.79 µM
[48]
  GI50: 0.321 µM
  TGI: 1.75 µM
[49]
  GI50: 0.0781 µM
[51]
  GI50: 0.326 µM
  TGI: 1.19 µM
[53]
  GI50: 0.0306 µM
  TGI: 0.155 µM
[54]
  GI50: 0.43 µM
  TGI: 1.72 µM
